Structures can show the parent of a compound that is named as a salt.

The target of the assay is T1, HCV polymerase (Hepatitis C virus genotype 1b, UniProt P26663).
T1 construct: a region encoding NS5B (591 amino acids; J Virol 1991 Mar, 65(3), 1105-13) was amplified by PCR; 6 His (N); made in house; host or cells: Escherichia coli
T1 sequence (P26663 2420-3010): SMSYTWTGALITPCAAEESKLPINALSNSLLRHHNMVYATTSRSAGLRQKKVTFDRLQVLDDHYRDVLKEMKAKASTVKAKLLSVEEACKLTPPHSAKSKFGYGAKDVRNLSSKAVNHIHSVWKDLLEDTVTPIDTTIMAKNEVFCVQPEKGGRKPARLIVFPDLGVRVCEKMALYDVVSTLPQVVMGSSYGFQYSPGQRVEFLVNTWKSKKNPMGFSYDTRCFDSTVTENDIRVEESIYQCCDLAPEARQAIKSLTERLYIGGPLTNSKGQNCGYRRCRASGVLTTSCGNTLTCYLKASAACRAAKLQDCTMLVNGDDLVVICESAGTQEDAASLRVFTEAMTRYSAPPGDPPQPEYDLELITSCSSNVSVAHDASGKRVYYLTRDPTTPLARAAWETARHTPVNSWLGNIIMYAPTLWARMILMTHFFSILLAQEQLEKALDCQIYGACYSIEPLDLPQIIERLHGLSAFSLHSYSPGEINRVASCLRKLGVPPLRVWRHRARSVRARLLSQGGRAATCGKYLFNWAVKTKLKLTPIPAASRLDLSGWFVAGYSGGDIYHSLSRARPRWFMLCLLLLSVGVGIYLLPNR
The assay is described as follows: biochemical. The note with it: read-out: HCV polymerase inhibitory activity IC50.
With `COCCOc1ccc(-c2ccc(Cl)cc2)c(COc2ccc(-c3nc4cc(C(=O)O)ccc4n3C3CCCCC3)cc2)c1` [Example 344, 2-{4-[2-(4-chlorophenyl)-5-(2-methoxyethoxy)benzyloxy]phenyl}-1-cyclohexylbenzimidazole-5-carboxylic acid hydrochloride], the IC50 is 16 nM.

Consider `COCCOCCOc1ccc(-c2ccc(Cl)cc2)c(COc2ccc(-c3nc4cc(C(=O)O)ccc4n3C3CCCCC3)cc2)c1` [Example 345, 2-{4-[2-(4-chlorophenyl)-5-{2-(2-methoxyethoxy)ethoxy}-benzyloxy]phenyl}-1-cyclohexylbenzimidazole-5-carboxylic acid hydrochloride], for which the IC50 came out at 12 nM.

For the compound `CC(C)CC(=O)c1ccc(-c2ccc(Cl)cc2)c(COc2ccc(-c3nc4cc(C(=O)O)ccc4n3C3CCCCC3)cc2)c1` [Example 346, 2-{4-[2-(4-chlorophenyl)-5-(isobutylcarbonyl)benzyloxy]phenyl}-1-cyclohexylbenzimidazole-5-carboxylic acid], the IC50 was determined as 25 nM.

In the case of `Cc1nc(-c2ccc(-c3ccc(Cl)cc3)c(COc3ccc(-c4nc5cc(C(=O)O)ccc5n4C4CCCCC4)cc3)c2)cs1` [Example 347, 2-{4-[2-(4-chlorophenyl)-5-(2-methylthiazol-4-yl)benzyloxy]-phenyl}-1-cyclohexylbenzimidazole-5-carboxylic acid], the IC50 turned out to be 22 nM.

As for `Cc1noc(-c2ccc(-c3ccc(Cl)cc3)c(COc3ccc(-c4nc5cc(C(=O)O)ccc5n4C4CCCCC4)cc3)c2)n1` [Example 349, 2-{4-[2-(4-chlorophenyl)-5-(3-methyl-1,2,4-oxadiazol-5-yl)benzyloxy]phenyl}-1-cyclohexylbenzimidazole-5-carboxylic acid hydrochloride], the IC50 amounted to 21 nM.

For `CC(C)NC(=O)c1ccc(COc2ccc(-c3nc4cc(C(=O)O)ccc4n3C3CCCCC3)cc2)c(-c2ccc(Cl)cc2)c1` [Example 350, 2-{4-[2-(4-chlorophenyl)-4-(isopropylcarbamoyl)benzyloxy]phenyl}-1-cyclohexylbenzimidazole-5-carboxylic acid hydrochloride], the IC50 was 20 nM.

In the case of `O=C(O)c1ccc2c(c1)nc(-c1ccc(OCc3ccc(C(=O)N4CCCCC4)cc3-c3ccc(Cl)cc3)cc1)n2C1CCCCC1` [Example 351, 2-{4-[2-(4-chlorophenyl)-4-(piperidinocarbonyl)benzyloxy]phenyl}-1-cyclohexylbenzimidazole-5-carboxylic acid hydrochloride], the IC50 stood at 19 nM.

Turning to `CC(C)(CO)NC(=O)c1ccc(-c2ccc(Cl)cc2)c(COc2ccc(-c3nc4cc(C(=O)O)ccc4n3C3CCCCC3)cc2)c1` [Example 352, 2-{4-[2-(4-chlorophenyl)-5-{(1-hydroxy-2-methylpropan-2-yl)carbamoyl}benzyloxy]phenyl}-1-cyclohexylbenzimidazole-5-carboxylic acid hydrochloride], the IC50 turned out to be 13 nM.

With `CC1(C)COC(c2ccc(-c3ccc(Cl)cc3)c(COc3ccc(-c4nc5cc(C(=O)O)ccc5n4C4CCCCC4)cc3)c2)=N1` [Example 353, 2-{4-[2-(4-chlorophenyl)-5-(4,4-dimethyl-2-oxazolin-2-yl)benzyloxy]phenyl}-1-cyclohexylbenzimidazole-5-carboxylic acid dihydrochloride], the IC50 stood at 23 nM.

On to `O=C(O)c1ccc2c(c1)nc(-c1ccc(OCc3ccc(C(=O)N4CCC(O)CC4)cc3-c3ccc(Cl)cc3)cc1)n2C1CCCCC1` [Example 354, 2-{4-[2-(4-chlorophenyl)-4-(4-hydroxypiperidin-1-ylcarbonyl)benzyloxy]phenyl}-1-cyclohexylbenzimidazole-5-carboxylic acid hydrochloride], for which the IC50 was 13 nM.

Regarding `O=C(O)c1ccc2c(c1)nc(-c1ccc(OCc3ccc(C(=O)NCCO)cc3-c3ccc(Cl)cc3)cc1)n2C1CCCCC1` [Example 355, 2-{4-[2-(4-chlorophenyl)-4-{(2-hydroxyethyl)carbamoyl}-benzyloxy]phenyl}-1-cyclohexylbenzimidazole-5-carboxylic acid hydrochloride], the IC50 came to 15 nM.

With `O=C(O)c1ccc2c(c1)nc(-c1ccc(OCc3ccc(C(=O)NCc4ccncc4)cc3-c3ccc(Cl)cc3)cc1)n2C1CCCCC1` [Example 356, 2-{4-[2-(4-chlorophenyl)-4-{(4-pyridylmethyl)carbamoyl}-benzyloxy]phenyl}-1-cyclohexylbenzimidazole-5-carboxylic acid], the IC50 was found to be 16 nM.

Take `CN(C)C(=O)c1ccc(COc2ccc(-c3nc4cc(C(=O)O)ccc4n3C3CCCCC3)cc2)c(-c2ccc(Cl)cc2)c1` [Example 357, 2-{4-[2-(4-chlorophenyl)-4-(dimethylcarbamoyl)benzyloxy]phenyl}-1-cyclohexylbenzimidazole-5-carboxylic acid hydrochloride]: the IC50 came out at 19 nM.

Turning to `Nc1nc(-c2ccc(-c3ccc(Cl)cc3)c(COc3ccc(-c4nc5cc(C(=O)O)ccc5n4C4CCCCC4)cc3)c2)cs1` [Example 358, 2-{4-[5-(2-aminothiazol-4-yl)-2-(4-chlorophenyl)benzyloxy]-phenyl}-1-cyclohexylbenzimidazole-5-carboxylic acid dihydrochloride], the IC50 was 17 nM.

Turning to `O=C(O)c1ccc2c(c1)nc(-c1ccc(OCc3cc(S(=O)(=O)N4CCC(O)CC4)ccc3-c3ccc(Cl)cc3)cc1)n2C1CCCCC1` [Example 359, 2-{4-[2-(4-chlorophenyl)-5-(4-hydroxypiperidin-1-ylsulfonyl)benzyloxy]phenyl}-1-cyclohexylbenzimidazole-5-carboxylic acid hydrochloride], the half-maximal inhibitory concentration (IC50) was found to be 15 nM.

Turning to `CN(C)C(=O)c1ccc(-c2ccc(F)cc2)c(COc2ccc(-c3nc4cc(C(=O)O)ccc4n3C3CCCCC3)cc2)c1` [Example 360, 2-{4-[5-(dimethylcarbamoyl)-2-(4-fluorophenyl)benzyloxy]phenyl}-1-cyclohexylbenzimidazole-5-carboxylic acid hydrochloride], the IC50 came to 14 nM.

Consider `CN(C)C(=O)c1ccc(-c2cccc(F)c2)c(COc2ccc(-c3nc4cc(C(=O)O)ccc4n3C3CCCCC3)cc2)c1` [Example 361, 2-{4-[5-(dimethylcarbamoyl)-2-(3-fluorophenyl)benzyloxy]phenyl}-1-cyclohexylbenzimidazole-5-carboxylic acid hydrochloride], for which the 50% inhibitory concentration (IC50) was determined as 28 nM.

On to `CN(C)C(=O)c1ccc(-c2ccc(Cl)s2)c(COc2ccc(-c3nc4cc(C(=O)O)ccc4n3C3CCCCC3)cc2)c1` [Example 362, 2-{4-[2-(5-chlorothiophen-2-yl)-5-(dimethylcarbamoyl)benzyloxy]-phenyl}-1-cyclohexylbenzimidazole-5-carboxylic acid hydrochloride], for which the IC50 turned out to be 20 nM.

Turning to `Cc1cnc(-c2ccc(Br)c(COc3ccc(-c4nc5cc(C(=O)O)ccc5n4C4CCCCC4)cc3)c2)o1` [Example 363, 2-{4-[2-bromo-5-(5-methyloxazol-2-yl)benzyloxy]phenyl}-1-cyclohexylbenzimidazole-5-carboxylic acid hydrochloride], the IC50 turned out to be 110 nM.

Turning to `Cc1cnc(-c2ccc(Br)c(COc3ccc(-c4nc5cc(C(=O)O)ccc5n4C4CCCCC4)cc3)c2)s1` [Example 364, 2-{4-[2-bromo-5-(5-methylthiazol-2-yl)benzyloxy]phenyl}-1-cyclohexylbenzimidazole-5-carboxylic acid hydrochloride], the IC50 was found to be 120 nM.

For `Cc1cnc(-c2ccc(-c3ccc(Cl)cc3)c(COc3ccc(-c4nc5cc(C(=O)O)ccc5n4C4CCCCC4)cc3)c2)o1` [Example 365, 2-{4-[2-(4-chlorophenyl)-5-(5-methyloxazol-2-yl)benzyloxy]-phenyl}-1-cyclohexylbenzimidazole-5-carboxylic acid hydrochloride], the IC50 turned out to be 20 nM.

`Cc1cnc(-c2ccc(-c3ccc(Cl)cc3)c(COc3ccc(-c4nc5cc(C(=O)O)ccc5n4C4CCCCC4)cc3)c2)s1` [Example 366, 2-{4-[2-(4-chlorophenyl)-5-(5-methylthiazol-2-yl)benzyloxy]-phenyl}-1-cyclohexylbenzimidazole-5-carboxylic acid hydrochloride]: the IC50 is 24 nM.

Take `O=C(O)c1ccc2c(c1)nc(-c1ccc(OCc3cc(-c4nnn[nH]4)ccc3-c3ccc(Cl)cc3)cc1)n2C1CCCCC1` [Example 367, 2-{4-[2-(4-chlorophenyl)-5-tetrazol-5-ylbenzyloxy]phenyl}-1-cyclohexylbenzimidazole-5-carboxylic acid hydrochloride]: the IC50 stood at 11 nM.

For the compound `O=C(O)c1ccc2c(c1)nc(-c1ccc(OCc3cc(Cl)ccc3-c3ccc(-c4nnn[nH]4)cc3)cc1)n2C1CCCCC1` [Example 369, 2-{4-[5-chloro-2-(4-tetrazol-5-ylphenyl)benzyloxy]phenyl}-1-cyclohexylbenzimidazole-5-carboxylic acid hydrochloride], the IC50 stood at 22 nM.

On to `O=C(O)c1ccc2c(c1)nc(-c1ccc(OCc3cc(OCCN4CCC(O)CC4)ccc3-c3ccc(Cl)cc3)cc1)n2C1CCCCC1` [Example 370, 2-{4-[2-(4-chlorophenyl)-5-{2-(4-hydroxypiperidin-1-yl)ethoxy}benzyloxy]phenyl}-1-cyclohexylbenzimidazole-5-carboxylic acid hydrochloride], for which the IC50 was found to be 17 nM.

For the compound `O=C(O)c1ccc2c(c1)nc(-c1ccc(OCc3cc(N4CCCCC4=O)ccc3-c3ccc(Cl)cc3)cc1F)n2C1CCCCC1` [Example 371, 2-{4-[2-(4-chlorophenyl)-5-(2-oxopiperidin-1-yl)benzyloxy]-2-fluorophenyl}-1-cyclohexylbenzimidazole-5-carboxylic acid hydrochloride], the IC50 is 15 nM.

As for `CN(C)C(=O)c1cc(COc2ccc(-c3nc4cc(C(=O)O)ccc4n3C3CCCCC3)c(F)c2)cc(-c2ccc(Cl)cc2)c1` [Example 372, 2-{4-[3-(4-chlorophenyl)-5-(dimethylcarbamoyl)benzyloxy]-2-fluorophenyl}-1-cyclohexylbenzimidazole-5-carboxylic acid hydrochloride], the IC50 stood at 33 nM.

(Values after patent publication US20040082635A1, “Fused cyclic compounds and medicinal use thereof” (priority 2001, published 2004).)
